The values below come from ChEMBL document CHEMBL1909046, “DrugMatrix in vitro pharmacology data”.

Experiment [1] has as its target T1, Thromboxane-A synthase (Homo sapiens, UniProt P24557).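 Further: enzyme inhibition assay with PGH2 supplied as substrate; in other assays of this panel Not Active means under 50% inhibition at 10 µM.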
T1 sequence (P24557 whole entry): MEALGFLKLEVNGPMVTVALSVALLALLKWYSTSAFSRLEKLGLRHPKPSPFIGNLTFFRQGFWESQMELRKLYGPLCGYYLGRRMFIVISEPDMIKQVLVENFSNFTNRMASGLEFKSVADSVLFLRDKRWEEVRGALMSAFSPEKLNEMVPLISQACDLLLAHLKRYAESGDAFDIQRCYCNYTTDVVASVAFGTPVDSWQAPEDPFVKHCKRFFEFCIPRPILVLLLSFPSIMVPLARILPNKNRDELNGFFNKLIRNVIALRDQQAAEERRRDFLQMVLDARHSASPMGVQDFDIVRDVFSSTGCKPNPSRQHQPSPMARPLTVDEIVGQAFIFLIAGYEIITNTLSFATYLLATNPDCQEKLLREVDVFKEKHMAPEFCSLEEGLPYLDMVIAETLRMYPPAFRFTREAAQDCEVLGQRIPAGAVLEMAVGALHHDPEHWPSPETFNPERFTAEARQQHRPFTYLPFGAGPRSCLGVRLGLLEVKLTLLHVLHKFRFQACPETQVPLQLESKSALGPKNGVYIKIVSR
As to the kind of experiment: biochemical. Type of experiment: tissue-based, Platelet. To be noted: platelet.

The target of experiment [2] is D(3) dopamine receptor (Homo sapiens, UniProt P35462). In words: DRUGMATRIX: Dopamine D3 radioligand binding (ligand: [3H] Spiperone). Type of experiment: cell membranes, CHO, Membrane.
Experiment [3] deals with Sodium-dependent dopamine transporter (Homo sapiens, UniProt Q01959). In words: DRUGMATRIX: Dopamine Transporter radioligand binding (ligand: [125I] RTI-55). It counts as cell membranes, CHO-K1, Membrane. To be noted: Not Active = under 50% inhibition at 10 µM.
In experiment [4] the target is T2, Leukotriene C4 synthase (Cavia porcellus, UniProt A6XA80).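 Further: enzyme inhibition assay of leukotriene C4 synthase, using LTA4 as the substrate; in other assays of this panel Not Active means under 50% inhibition at 10 µM.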
T2 sequence (A6XA80 whole entry): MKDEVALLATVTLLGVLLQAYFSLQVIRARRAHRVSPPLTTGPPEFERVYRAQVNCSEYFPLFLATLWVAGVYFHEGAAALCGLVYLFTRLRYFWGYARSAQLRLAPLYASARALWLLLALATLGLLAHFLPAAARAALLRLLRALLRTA
It counts as tissue-based, Lung.

The target of experiment [5] is Mitogen-activated protein kinase 1 (Homo sapiens, UniProt P28482). In words: DRUGMATRIX: Protein Serine/Threonine Kinase, ERK2 enzyme inhibition (substrate: Myelin Basic Protein). The arrangement: species or system Escherichia coli. To be noted: Not Active = under 50% inhibition at 10 µM.
For experiment [6], the target named is D(1A) dopamine receptor (Homo sapiens, UniProt P21728). As to the kind of experiment: DRUGMATRIX: Dopamine D1 radioligand binding (ligand: [3H] SCH-23390). It counts as cell membranes, Membrane. To be noted: cho; Not Active = under 50% inhibition at 10 µM.
D(1A) dopamine receptor, sequence (P21728 whole entry): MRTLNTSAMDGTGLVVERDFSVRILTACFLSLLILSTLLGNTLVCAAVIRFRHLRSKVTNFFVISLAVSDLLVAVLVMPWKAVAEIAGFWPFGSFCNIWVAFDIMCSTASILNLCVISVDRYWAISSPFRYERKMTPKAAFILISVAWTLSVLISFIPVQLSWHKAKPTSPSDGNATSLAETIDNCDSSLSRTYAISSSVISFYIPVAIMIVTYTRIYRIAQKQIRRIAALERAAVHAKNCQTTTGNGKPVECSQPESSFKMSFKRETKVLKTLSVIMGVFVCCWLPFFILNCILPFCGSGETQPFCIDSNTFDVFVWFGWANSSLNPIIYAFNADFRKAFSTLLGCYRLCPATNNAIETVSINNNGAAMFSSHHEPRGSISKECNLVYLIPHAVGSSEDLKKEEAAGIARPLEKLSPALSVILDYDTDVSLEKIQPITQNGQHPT

D(3) dopamine receptor, sequence (P35462 whole entry): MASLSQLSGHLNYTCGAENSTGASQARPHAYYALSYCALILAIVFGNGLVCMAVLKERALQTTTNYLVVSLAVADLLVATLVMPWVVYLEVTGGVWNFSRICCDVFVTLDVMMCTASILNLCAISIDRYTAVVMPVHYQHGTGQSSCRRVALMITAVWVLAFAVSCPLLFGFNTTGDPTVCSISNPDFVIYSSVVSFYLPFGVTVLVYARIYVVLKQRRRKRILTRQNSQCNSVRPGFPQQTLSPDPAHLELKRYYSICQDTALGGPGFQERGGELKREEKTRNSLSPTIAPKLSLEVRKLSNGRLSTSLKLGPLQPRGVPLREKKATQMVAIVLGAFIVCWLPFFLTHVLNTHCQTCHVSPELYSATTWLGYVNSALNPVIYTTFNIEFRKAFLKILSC
Mitogen-activated protein kinase 1, sequence (P28482 whole entry): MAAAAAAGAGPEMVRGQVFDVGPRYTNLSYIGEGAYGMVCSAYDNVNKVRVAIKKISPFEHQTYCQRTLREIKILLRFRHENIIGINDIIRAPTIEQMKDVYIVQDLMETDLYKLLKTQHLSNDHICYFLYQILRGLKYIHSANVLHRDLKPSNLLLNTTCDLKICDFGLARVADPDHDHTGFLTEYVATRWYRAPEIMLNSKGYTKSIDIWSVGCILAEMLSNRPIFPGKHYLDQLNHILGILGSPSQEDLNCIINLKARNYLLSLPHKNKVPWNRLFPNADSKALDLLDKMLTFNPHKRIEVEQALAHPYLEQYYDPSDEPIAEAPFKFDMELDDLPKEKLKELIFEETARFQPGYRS
Sodium-dependent dopamine transporter, sequence (Q01959 whole entry): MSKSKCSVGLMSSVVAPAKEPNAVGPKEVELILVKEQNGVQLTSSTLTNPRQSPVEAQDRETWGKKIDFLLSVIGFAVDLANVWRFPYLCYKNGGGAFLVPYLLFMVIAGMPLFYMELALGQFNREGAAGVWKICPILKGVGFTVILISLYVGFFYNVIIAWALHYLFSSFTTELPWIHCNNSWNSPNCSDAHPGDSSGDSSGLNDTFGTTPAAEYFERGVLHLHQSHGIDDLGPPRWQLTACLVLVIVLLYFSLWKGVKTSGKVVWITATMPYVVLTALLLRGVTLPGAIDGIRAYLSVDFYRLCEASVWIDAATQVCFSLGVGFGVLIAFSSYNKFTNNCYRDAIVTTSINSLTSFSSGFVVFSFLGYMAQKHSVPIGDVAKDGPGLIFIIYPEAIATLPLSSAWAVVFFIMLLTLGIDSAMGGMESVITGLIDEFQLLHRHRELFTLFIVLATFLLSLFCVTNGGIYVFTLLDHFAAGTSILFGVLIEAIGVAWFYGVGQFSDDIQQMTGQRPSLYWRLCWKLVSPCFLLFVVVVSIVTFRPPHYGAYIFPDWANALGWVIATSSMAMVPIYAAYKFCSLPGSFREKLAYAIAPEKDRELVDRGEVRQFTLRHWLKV

`S=C=Nc1cccc2ccccc12` [1-NAPHTHYLISOTHIOCYANATE]: the IC50 entry in experiment [1], in experiment [2] (cho), in experiment [3] (cho-k1), in experiment [4] and in experiment [5] was “Not Active” each time.
Take `CC(=O)Nc1ccc(O)cc1` [ACETAMINOPHEN]: the half-inhibitory concentration (IC50) result in experiment [1], in experiment [6], in experiment [2] (cho), in experiment [3] (cho-k1), in experiment [4] and in experiment [5] was “Not Active” each time.
For `Cc1cc(=O)n(-c2ccccc2)n1C` [ANTIPYRINE], the IC50 result in experiment [1], in experiment [6], in experiment [2] (cho), in experiment [3] (cho-k1), in experiment [4] and in experiment [5] was “Not Active” each time.
In the case of `CN1C(=O)COc2c(C(=O)NC3CN4CCC3CC4)cc(Cl)cc21` (stereo unspecified) [AZASETRON], the IC50 result in experiment [1], in experiment [6], in experiment [2] (cho), in experiment [3] (cho-k1), in experiment [4] and in experiment [5] was “Not Active” throughout.
For the molecule `C[C@H]1C[C@H]2[C@@H]3CCC4=CC(=O)C=C[C@]4(C)[C@@]3(Cl)[C@@H](O)C[C@]2(C)[C@@]1(O)C(=O)CO` [BECLOMETHASONE], the IC50 entry in experiment [1], in experiment [6], in experiment [2] (cho), in experiment [3] (cho-k1), in experiment [4] and in experiment [5] was “Not Active” in each case.
For `Nc1c(CC(=O)O)cccc1C(=O)c1ccc(Br)cc1` [BROMFENAC], the 50% inhibitory concentration (IC50) entry in experiment [1], in experiment [6], in experiment [2] (cho), in experiment [3] (cho-k1), in experiment [4] and in experiment [5] was “Not Active” each time.
`CCCCN1CCCCC1C(=O)Nc1c(C)cccc1C.Cl` (stereo unspecified) [BUPIVACAINE HYDROCHLORIDE]: the IC50 result in experiment [1], in experiment [6], in experiment [2] (cho), in experiment [3] (cho-k1), in experiment [4] and in experiment [5] was “Not Active” in each case.
With `O=C1CC2(CCCC2)CC(=O)N1CCCCN1CCN(c2ncccn2)CC1` [BUSPIRONE], the IC50 result is “Not Active” in experiment [1]; “Not Active” in experiment [6]; 0.044 µM in experiment [2] (read-out: IC50); “Not Active” in experiment [3] (cho-k1); “Not Active” in experiment [4]; “Not Active” in experiment [5]. In addition, the Ki in experiment [2] was determined as 0.015 µM.
Consider `O=C(N[C@H](CO)[C@H](O)c1ccc([N+](=O)[O-])cc1)C(Cl)Cl` [CHLORAMPHENICOL], for which the IC50 entry in experiment [1], in experiment [6], in experiment [2] (cho), in experiment [3] (cho-k1), in experiment [4] and in experiment [5] was “Not Active” throughout.
Regarding `C[N+](C)(C)CCO.[Cl-]` [CHOLINE CHLORIDE], the half-maximal inhibitory concentration (IC50) entry in experiment [1], in experiment [6], in experiment [2] (cho), in experiment [3] (cho-k1), in experiment [4] and in experiment [5] was “Not Active” in each case.
`CC(=O)OCC(=O)[C@@]1(O)CC[C@H]2[C@@H]3CCC4=CC(=O)CC[C@]4(C)[C@H]3C(=O)C[C@@]21C` [CORTISONE ACETATE]: the IC50 result in experiment [1], in experiment [6], in experiment [2] (cho), in experiment [3] (cho-k1), in experiment [4] and in experiment [5] was “Not Active” in each case.
On to `O=c1ccc2ccccc2o1` [COUMARIN], for which the IC50 result in experiment [1], in experiment [6], in experiment [2] (cho), in experiment [3] (cho-k1), in experiment [4] and in experiment [5] was “Not Active” each time.
As to `C[C@@H]1C[C@@H]([C@H](O)CC2CC(=O)NC(=O)C2)C(=O)[C@@H](C)C1` [CYCLOHEXIMIDE], the IC50 result in experiment [1], in experiment [6], in experiment [2] (cho), in experiment [3] (cho-k1), in experiment [4] and in experiment [5] was “Not Active” throughout.
Take `C/C=C/C[C@@H](C)[C@@H](O)[C@H]1C(=O)N[C@@H](CC)C(=O)N(C)CC(=O)N(C)[C@@H](CC(C)C)C(=O)N[C@@H](C(C)C)C(=O)N(C)[C@@H](CC(C)C)C(=O)N[C@@H](C)C(=O)N[C@H](C)C(=O)N(C)[C@@H](CC(C)C)C(=O)N(C)[C@@H](CC(C)C)C(=O)N(C)[C@@H](C(C)C)C(=O)N1C` [CYCLOSPORINE]: the IC50 result in experiment [1], in experiment [6], in experiment [2] (cho), in experiment [3] (cho-k1), in experiment [4] and in experiment [5] was “Not Active” in each case.
Take `COP(=O)(OC)OC=C(Cl)Cl` [DICHLORVOS]: the IC50 entry in experiment [1], in experiment [6], in experiment [2] (cho), in experiment [3] (cho-k1), in experiment [4] and in experiment [5] was “Not Active” throughout.
With `O=C(O)Cc1ccccc1Nc1c(Cl)cccc1Cl` [DICLOFENAC], the IC50 result in experiment [1], in experiment [6], in experiment [2] (cho), in experiment [3] (cho-k1), in experiment [4] and in experiment [5] was “Not Active” each time.
`Cn1c(=O)c2c(ncn2CC2OCCO2)n(C)c1=O` [DOXOFYLLINE]: the IC50 result in experiment [1], in experiment [6], in experiment [2] (cho), in experiment [3] (cho-k1), in experiment [4] and in experiment [5] was “Not Active” throughout.
Regarding `C[C@]12CC[C@@H]3c4ccc(OC(=O)c5ccccc5)cc4CC[C@H]3[C@@H]1CC[C@@H]2O` [ESTRADIOL BENZOATE], the IC50 entry in experiment [1], in experiment [6], in experiment [2] (cho), in experiment [3] (cho-k1), in experiment [4] and in experiment [5] was “Not Active” each time.
Consider `C[C@]12CC[C@@H]3c4ccc(O)cc4CC[C@H]3[C@@H]1CC[C@@H]2O` [ESTRADIOL], for which the 50% inhibitory concentration (IC50) entry in experiment [1] was “Not Active”; in experiment [6] it was “Not Active”; in experiment [2] (cho), “Not Active”; in experiment [3] (read-out: IC50), 14.9 µM; in experiment [4], “Not Active”; in experiment [5], “Not Active”. The Ki in experiment [3] (read-out: Ki) stood at 11.8 µM.
Consider `CC[C@@H](CO)NCCN[C@@H](CC)CO` [ETHAMBUTOL], for which the half-inhibitory concentration (IC50) result in experiment [1], in experiment [6], in experiment [2] (cho), in experiment [3] (cho-k1), in experiment [4] and in experiment [5] was “Not Active” in each case.
Take `CC1(C)O[C@@H]2C[C@H]3[C@@H]4C[C@H](F)C5=CC(=O)C=C[C@]5(C)[C@H]4[C@@H](O)C[C@]3(C)[C@]2(C(=O)CO)O1` [FLUNISOLIDE]: the IC50 entry in experiment [1], in experiment [6], in experiment [2] (cho), in experiment [3] (cho-k1), in experiment [4] and in experiment [5] was “Not Active” throughout.
Turning to `CC1(C)O[C@@H]2C[C@H]3[C@@H]4C[C@H](F)C5=CC(=O)C=C[C@]5(C)[C@@]4(F)[C@@H](O)C[C@]3(C)[C@]2(C(=O)CO)O1` [FLUOCINOLONE ACETONIDE], the IC50 result in experiment [1], in experiment [6], in experiment [2] (cho), in experiment [3] (cho-k1), in experiment [4] and in experiment [5] was “Not Active” in each case.
As for `CC1(C)O[C@@H]2C[C@H]3[C@@H]4C[C@H](F)C5=CC(=O)CC[C@]5(C)[C@H]4[C@@H](O)C[C@]3(C)[C@]2(C(=O)CO)O1` [FLURANDRENOLIDE], the IC50 entry in experiment [1], in experiment [6], in experiment [2] (cho), in experiment [3] (cho-k1), in experiment [4] and in experiment [5] was “Not Active” each time.
Consider `Cc1ccc(S(=O)(=O)NC(=O)NN2CC3CCCC3C2)cc1` (stereo unspecified) [GLICLAZIDE], for which the IC50 entry in experiment [1], in experiment [6], in experiment [2] (cho), in experiment [3] (cho-k1), in experiment [4] and in experiment [5] was “Not Active” in each case.
On to `CC(C(=O)O)c1cccc(C(=O)c2ccccc2)c1` (stereo unspecified) [KETOPROFEN], for which the IC50 result in experiment [1], in experiment [6], in experiment [2] (cho), in experiment [3] (cho-k1), in experiment [4] and in experiment [5] was “Not Active” each time.

In general, IC50 refers to the concentration that inhibits the measured activity by half. What is called Ki is the equilibrium dissociation constant of an inhibitor or competing ligand from its target.
